Reference: ChEMBL document CHEMBL1201862, “PubChem BioAssay data set” (2004)
The source made the active and inactive calls. Cut-off read from the data, not from the text of the source, for most assays here: actives have a measured EC50 and inactives only a lower limit.

Assays:
[1] = tested on: Streptococcus sp. 'group A'; assay: growth inhibition of control SK(-) GAS strain, dose response, counter-screen for streptokinase expression inhibitor project, luminescence, kanamycin, BacTiterGlo, confirmation (AID 1900); type: functional, organism-based
Streptococcus = assay: Group A Streptococcus viability loss, dose response, counter-screen for streptokinase expression inhibitor project, luminescence, BacTiterGlo (AID 1915); type: functional, organism-based;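 note: potency for reduction of bacterial viability or growth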
[2] = molecular target: T1, High affinity choline transporter 1 (Homo sapiens, UniProt Q9GZV3); assay: CHT inhibitors, dose response, cell-based, 5-point CRC, membrane potential dye (AID 504840); type: functional
T1 sequence (Q9GZV3 whole entry): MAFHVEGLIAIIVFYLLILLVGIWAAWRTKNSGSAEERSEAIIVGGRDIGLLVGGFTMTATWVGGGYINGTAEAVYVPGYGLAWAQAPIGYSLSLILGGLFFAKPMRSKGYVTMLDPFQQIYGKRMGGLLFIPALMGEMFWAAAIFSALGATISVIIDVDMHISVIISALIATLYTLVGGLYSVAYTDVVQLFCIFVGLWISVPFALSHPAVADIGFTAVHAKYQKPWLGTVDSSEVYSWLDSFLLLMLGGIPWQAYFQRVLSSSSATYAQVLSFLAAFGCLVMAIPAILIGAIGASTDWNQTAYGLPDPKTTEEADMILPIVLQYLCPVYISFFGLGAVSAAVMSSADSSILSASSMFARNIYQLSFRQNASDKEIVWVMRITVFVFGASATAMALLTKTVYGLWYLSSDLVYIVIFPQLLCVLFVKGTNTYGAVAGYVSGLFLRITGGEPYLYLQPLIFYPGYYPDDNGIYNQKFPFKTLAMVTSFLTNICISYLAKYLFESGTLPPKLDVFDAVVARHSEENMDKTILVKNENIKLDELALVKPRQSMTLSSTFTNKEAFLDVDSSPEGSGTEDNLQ

Genome polyprotein = Genome polyprotein (dengue virus type 2, UniProt P29990); assay: Dengue-2 NS5 methyltransferase inhibitors, primary screen, biochemical, confirmation dose response (AID 588689); type: functional
[3] = inhibitors of firefly luciferase expression or activity, dose response, H4 neuroglioma cells, luminescence (AID 1990); type: functional, cell-based
[4] = Luminescence Cell-Based Dose Response HTS to Identify Inhibitors of 5'UTR Stem-Loop Driven Prion Protein mRNA Translation in H4 Neuroglioblastoma Cells. [Related pubchem assays: 1827 (Project Summary), 1813 (Primary HTS)]; type: functional
[5] = inhibitors of SNCA 5'UTR-driven reporter translation, confirmation, H4 neuroglioma cells, luminescence (AID 1988); type: functional, cell-based
[6] = Shn3 3'UTR reporter inhibitors, dose response, cell-based, Clone20 osteoblasts, firefly luciferase, cherry-picked (AID 624132); type: functional;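 note: firefly luciferase luminescence from reporter carrying the Shn3 3'UTR in osteoblasts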
[7] = HepG2 cell cytotoxicity, dose response, cytotoxicity control for Shn3 inhibitor project, CellTiter-Glo, cherry-picked (AID 624134); type: functional, cell-based
[8] = control 3'UTR Renilla luciferase suppression, dose response, counter-screen for Shn3 inhibitor project, cell-based, Clone20-Shn3RL, cherry-picked (AID 624133); type: functional
[9] = inhibitors of intracellular T. cruzi replication, confirmation, NIH3T3 host cells, beta-gal luminescence (AID 2044); type: functional, cell-based;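 note: intracellular parasites grown in NIH/3T3 mouse fibroblasts as host cells; luminescent beta-galactosidase reporter signal from transgenic T. cruzi replicating inside host cells; inhibitors lower the luminescence signal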
[10] = cytotoxicity toward NIH3T3 fibroblasts, dose response, counter-screen, cell-based, ATP luminescence, mouse fibroblasts (AID 2010); type: functional;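 note: cells exposed to compound for about 90 hours before reading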
[11] = molecular target: Luciferin 4-monooxygenase (Photinus pyralis, UniProt P08659); assay: firefly luciferase enzyme inhibitors, dose response, biochemical, luminescence (AID 1891)
[12] = Luminescence Cell-Based Dose Confirmation HTS to Identify Inhibitors of Platelet Dense Granule Release. [Related pubchem assays: 1663 (Primary HTS), 1678 (Summary of Project)]; type: functional
cells = type: functional
[13] = molecular target: T2, Replicative DNA helicase DnaB (Mycobacterium tuberculosis, UniProt P9WMR3); assay: DnaB intein splicing inhibitors, dose response, biochemical, cell-free fluorescence (AID 449749); type: functional
T2 sequence (P9WMR3 whole entry): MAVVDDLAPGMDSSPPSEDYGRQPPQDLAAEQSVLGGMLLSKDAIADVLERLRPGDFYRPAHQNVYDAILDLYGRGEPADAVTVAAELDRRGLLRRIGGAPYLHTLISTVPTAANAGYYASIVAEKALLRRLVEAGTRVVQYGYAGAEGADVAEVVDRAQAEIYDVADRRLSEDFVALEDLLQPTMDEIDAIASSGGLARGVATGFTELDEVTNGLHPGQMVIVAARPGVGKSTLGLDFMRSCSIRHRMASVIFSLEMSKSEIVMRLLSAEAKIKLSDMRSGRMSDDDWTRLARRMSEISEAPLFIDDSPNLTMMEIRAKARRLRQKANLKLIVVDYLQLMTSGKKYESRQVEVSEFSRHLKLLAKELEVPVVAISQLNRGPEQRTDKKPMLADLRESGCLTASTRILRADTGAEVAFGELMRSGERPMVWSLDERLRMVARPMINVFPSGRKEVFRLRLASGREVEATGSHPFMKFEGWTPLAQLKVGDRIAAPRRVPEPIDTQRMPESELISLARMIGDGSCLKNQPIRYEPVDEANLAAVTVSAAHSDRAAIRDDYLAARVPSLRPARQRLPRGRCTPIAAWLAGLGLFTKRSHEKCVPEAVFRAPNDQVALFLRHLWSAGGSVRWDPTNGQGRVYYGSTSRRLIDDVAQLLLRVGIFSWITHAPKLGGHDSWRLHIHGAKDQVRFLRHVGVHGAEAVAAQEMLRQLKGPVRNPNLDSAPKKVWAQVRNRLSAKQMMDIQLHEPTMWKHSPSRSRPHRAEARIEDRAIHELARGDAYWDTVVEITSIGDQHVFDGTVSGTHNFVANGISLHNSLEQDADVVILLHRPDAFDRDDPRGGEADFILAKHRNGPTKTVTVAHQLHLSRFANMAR

Protein RecA = molecular target: T3, Protein RecA (Mycobacterium tuberculosis, UniProt P9WHJ3); assay: Fluorescence Cell-Free Homogeneous Dose Retest to Identify Inhibitors of RecA-Intein Splicing Activity. [Related pubchem assays (depositor defined):AID2097, AID2223, AID489010, AID492950]; type: functional
T3 sequence (P9WHJ3 whole entry): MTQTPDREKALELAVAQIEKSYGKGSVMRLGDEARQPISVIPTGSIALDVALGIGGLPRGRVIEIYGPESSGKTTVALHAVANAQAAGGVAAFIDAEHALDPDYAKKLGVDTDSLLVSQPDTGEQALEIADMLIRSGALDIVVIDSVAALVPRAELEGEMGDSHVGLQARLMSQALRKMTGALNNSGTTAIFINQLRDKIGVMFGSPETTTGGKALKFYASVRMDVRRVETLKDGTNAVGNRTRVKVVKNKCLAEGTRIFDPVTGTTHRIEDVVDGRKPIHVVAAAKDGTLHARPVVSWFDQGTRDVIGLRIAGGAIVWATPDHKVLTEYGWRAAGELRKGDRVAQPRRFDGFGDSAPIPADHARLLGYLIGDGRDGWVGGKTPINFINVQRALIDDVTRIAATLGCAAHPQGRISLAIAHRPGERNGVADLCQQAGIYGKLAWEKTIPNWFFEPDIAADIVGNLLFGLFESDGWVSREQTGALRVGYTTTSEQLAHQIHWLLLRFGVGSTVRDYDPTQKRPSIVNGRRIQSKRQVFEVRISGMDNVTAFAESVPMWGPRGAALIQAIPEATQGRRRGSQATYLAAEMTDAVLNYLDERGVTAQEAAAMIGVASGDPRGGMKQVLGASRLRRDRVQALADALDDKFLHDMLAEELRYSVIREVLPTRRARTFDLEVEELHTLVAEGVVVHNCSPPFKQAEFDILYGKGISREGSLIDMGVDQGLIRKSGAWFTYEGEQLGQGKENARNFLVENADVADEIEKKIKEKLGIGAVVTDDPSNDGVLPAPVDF

[14] = molecular target: T4, Polyadenylate-binding protein 1 (Homo sapiens, UniProt P11940); assay: PABP1 MLLE–PAM2 interaction inhibitors, dose response, miRNA deadenylation inhibitor project, biochemical, fluorescence polarization, Cy5-PAM2 peptide, secondary (AID 602260); type: functional; conditions: read-out: IC50_Mean
[15] = molecular target: T4, Polyadenylate-binding protein 1; assay: PABP1 MLLE–PAM2 binding inhibitor potency, dose response, biochemical, fluorescence polarization, FITC-PAM2 peptide (AID 602259); type: functional; conditions: read-out: IC50_Mean

Genome polyprotein, sequence (P29990 2492-3391 limits assumed): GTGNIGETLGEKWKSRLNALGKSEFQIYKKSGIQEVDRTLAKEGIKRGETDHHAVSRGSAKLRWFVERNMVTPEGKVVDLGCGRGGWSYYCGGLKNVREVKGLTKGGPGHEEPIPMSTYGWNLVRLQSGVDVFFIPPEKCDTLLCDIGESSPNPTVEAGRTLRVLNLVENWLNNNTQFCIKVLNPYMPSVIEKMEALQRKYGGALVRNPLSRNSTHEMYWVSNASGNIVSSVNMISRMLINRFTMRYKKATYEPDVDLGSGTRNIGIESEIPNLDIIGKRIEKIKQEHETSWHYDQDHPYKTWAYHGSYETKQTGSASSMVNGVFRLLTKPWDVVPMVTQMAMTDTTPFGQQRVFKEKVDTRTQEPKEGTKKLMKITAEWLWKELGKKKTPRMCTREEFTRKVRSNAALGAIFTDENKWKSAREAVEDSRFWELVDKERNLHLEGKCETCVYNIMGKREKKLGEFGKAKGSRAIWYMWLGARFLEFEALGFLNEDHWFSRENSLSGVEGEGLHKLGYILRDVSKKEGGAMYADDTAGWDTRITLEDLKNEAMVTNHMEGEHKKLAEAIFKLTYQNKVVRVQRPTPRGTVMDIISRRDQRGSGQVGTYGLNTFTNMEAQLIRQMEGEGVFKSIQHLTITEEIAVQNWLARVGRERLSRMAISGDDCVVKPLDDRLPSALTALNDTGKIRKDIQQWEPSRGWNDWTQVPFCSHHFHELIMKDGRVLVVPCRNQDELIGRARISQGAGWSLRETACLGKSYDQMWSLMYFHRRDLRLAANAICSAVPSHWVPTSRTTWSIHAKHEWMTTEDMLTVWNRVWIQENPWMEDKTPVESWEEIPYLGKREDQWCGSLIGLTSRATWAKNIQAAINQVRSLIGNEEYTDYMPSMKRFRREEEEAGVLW
T4 sequence (P11940 whole entry): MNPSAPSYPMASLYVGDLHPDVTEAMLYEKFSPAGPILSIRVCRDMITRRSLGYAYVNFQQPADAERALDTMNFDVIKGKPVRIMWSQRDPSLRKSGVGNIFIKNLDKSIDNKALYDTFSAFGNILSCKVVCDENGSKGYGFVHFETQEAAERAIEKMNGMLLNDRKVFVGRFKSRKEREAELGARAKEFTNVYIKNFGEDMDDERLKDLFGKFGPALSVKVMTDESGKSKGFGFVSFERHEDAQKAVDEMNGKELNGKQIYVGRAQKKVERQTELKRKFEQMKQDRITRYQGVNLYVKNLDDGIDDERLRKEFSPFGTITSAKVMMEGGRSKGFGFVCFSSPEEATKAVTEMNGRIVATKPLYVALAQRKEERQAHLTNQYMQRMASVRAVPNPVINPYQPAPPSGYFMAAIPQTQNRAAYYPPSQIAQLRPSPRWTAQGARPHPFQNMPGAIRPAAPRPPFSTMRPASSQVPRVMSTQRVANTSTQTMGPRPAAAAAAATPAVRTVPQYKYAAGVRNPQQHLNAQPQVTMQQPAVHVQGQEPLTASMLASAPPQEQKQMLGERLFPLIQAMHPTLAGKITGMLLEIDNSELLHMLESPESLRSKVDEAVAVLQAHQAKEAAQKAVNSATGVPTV
Luciferin 4-monooxygenase, sequence (P08659 whole entry): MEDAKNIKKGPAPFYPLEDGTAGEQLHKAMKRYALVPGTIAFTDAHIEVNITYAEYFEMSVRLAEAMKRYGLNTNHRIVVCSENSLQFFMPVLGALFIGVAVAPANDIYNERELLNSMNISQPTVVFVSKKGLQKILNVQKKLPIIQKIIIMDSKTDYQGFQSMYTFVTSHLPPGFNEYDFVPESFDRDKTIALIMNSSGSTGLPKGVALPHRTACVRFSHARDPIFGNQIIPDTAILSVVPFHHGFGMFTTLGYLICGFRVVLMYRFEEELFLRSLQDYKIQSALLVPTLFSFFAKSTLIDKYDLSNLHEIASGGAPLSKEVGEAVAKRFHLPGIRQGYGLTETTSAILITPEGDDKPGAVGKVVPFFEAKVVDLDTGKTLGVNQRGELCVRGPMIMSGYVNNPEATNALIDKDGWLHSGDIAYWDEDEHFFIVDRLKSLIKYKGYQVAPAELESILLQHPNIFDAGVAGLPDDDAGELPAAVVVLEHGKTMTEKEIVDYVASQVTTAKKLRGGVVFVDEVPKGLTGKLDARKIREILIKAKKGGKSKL

In the case of `CC1=NN(C(N)=S)C(=O)C1N=Nc1c(Br)cc(Br)cc1Br` (configuration not stated), the EC50 [1] is reported as 2.76 µM (active), the EC50 (Streptococcus) is reported as 8.6 µM (active) and the IC50 [2] is reported as 12 µM (active). For the same molecule, the IC50 (Genome polyprotein) was 43.5 µM (active).
With `COc1ccc(NC(=O)c2cc(Cl)ccc2Cl)c([N+](=O)[O-])c1` the EC50 [3] was > 120 µM (not active), the EC50 [4] was > 120 µM (not active) and the EC50 [5] was > 120 µM (not active).
With `Nc1nonc1C(=O)NCCNCc1cc(Br)ccc1OCc1ccc(F)cc1` the AC50 [6] was 3.74 µM (active), the AC50 [7] was 38.6 µM (active) and the AC50 [8] was 8.32 µM (active).
For `C#CCOc1c(Cl)cc(/C=C2/C(=O)ON=C2C)cc1OCC`, the IC50 (Genome polyprotein) was > 100 µM (active).
For `O=C(Nc1ccc(S(=O)(=O)N2CCOCC2)cc1)c1ccc([N+](=O)[O-])cc1Cl`, the EC50 [9] was 0.867 µM (active), the EC50 [10] was > 30 µM (not active) and the IC50 [2] was 15.1 µM (active).
With `Cc1cc(C)n2nc(N)c(N=Nc3ccccc3)c2n1` the EC50 [11] was > 112 µM (not active), the EC50 [12] was > 112 µM (not active) and the IC50 (cells) was 5.78 µM (active).
For `Clc1ccc(C[n+]2cc(-c3ccccc3)n3c2CCCCC3)c(Cl)c1`, the EC50 [9] was 0.273 µM (active), the EC50 [10] was 15.3 µM (active) and the AC50 [6] was 1.2 µM (active). For the same molecule, the AC50 [7] was > 70 µM (inactive) and the AC50 [8] was 1.21 µM (active).
With `CC(C)c1nnc(NC(=O)CC(=O)Nc2ccccc2C(=O)O)s1` the EC50 [3] was 16.3 µM (active), the EC50 [4] was 14.6 µM (active) and the EC50 [5] was 11.3 µM (active).
For `CC#CC(=O)N1CCC(CCc2ccccc2)(C(=O)OCC)CC1`, the EC50 [4] was > 120 µM (not active).
For `CC(C)n1c(/C=C/[C@H](O)C[C@H](O)CC(=O)O)c(-c2ccc(F)cc2)c2ccccc21`, the AC50 [6] was 1.42 µM (active), the AC50 [7] was > 70 µM (inactive) and the AC50 [8] was 5.95 µM (active).
For `Cc1ccccc1-n1nc2c(c1NC(=O)C1CCCC1)CS(=O)(=O)C2`, the EC50 [3] was > 120 µM (not active), the EC50 [4] was > 120 µM (not active) and the EC50 [5] was > 120 µM (not active).
With `O=C1NC(=O)C(=Cc2cc3c(cc2[N+](=O)[O-])OCO3)C(=O)N1` the AC50 [13] was > 380 µM (inactive), the EC50 (Protein RecA) was > 380 µM (inconclusive) and the IC50 (Genome polyprotein) was 21.4 µM (active).
For `O=C(COc1ccccc1)Nc1nnc(-c2ccc(Cl)cc2)o1`, the IC50 (cells) was 34.6 µM (active).
In the case of `O=C(NCCC1=CCCCC1)C1CCC(CNc2nc(S)nc3ccccc23)CC1` (configuration not stated), the EC50 [3] is reported as 9.48 µM (active), the EC50 [4] is reported as > 120 µM (not active) and the EC50 [5] is reported as > 120 µM (not active).
In the case of `Cc1ccc(-c2cc(-c3ccc(F)cc3)nc(N)c2C#N)o1`, the EC50 [3] is reported as 17.1 µM (active), the EC50 [4] is reported as > 120 µM (not active) and the EC50 [5] is reported as 49.7 µM (active).
In the case of `O=C1OC(c2ccccc2)C(C(=O)c2ccc(Cl)cc2)=C1O` (configuration not stated), the IC50 (Genome polyprotein) is reported as 83.4 µM (active).
With `CCCCCn1c(=O)c(C(=O)OCC)c(Cl)c2ccccc21` the IC50 [2] was 19.1 µM (active).
In the case of `CC1CCC(NC(=O)c2ccc(NC(=O)CC3SC(N4CCCC4)=NC3=O)cc2)CC1` (configuration not stated), the IC50 [2] is reported as 14.5 µM (active).
In the case of `COC(=O)c1sccc1NC(=O)C1CC2CCC1C2` (configuration not stated), the EC50 [3] is reported as > 120 µM (not active), the EC50 [4] is reported as > 120 µM (not active) and the EC50 [5] is reported as > 120 µM (not active).
With `Cc1ccc(OC(=O)CCS(=O)(=O)c2ccc(C)cc2)cc1` the IC50 (cells) was < 0.1 µM (active).
In the case of `c1ccc(Sc2ccccc2CN2CCCC2)cc1`, the EC50 [3] is reported as > 120 µM (not active), the EC50 [4] is reported as > 120 µM (not active) and the EC50 [5] is reported as > 120 µM (not active).
With `CC1=NN(C(=O)c2ccccc2F)C(O)(c2ccc(Cl)cc2)C1` (configuration not stated) the IC50 (cells) was > 50 µM (active).
With `COC(=O)C1=C(C(=O)OC)C(c2ccccc2O)c2sc(O)nc2S1` (configuration not stated) the IC50 (Genome polyprotein) was 93.2 µM (active), the IC50 [14] was > 66 µM (inactive) and the IC50 [15] was > 66 µM (inactive).
In the case of `CCOC(=O)c1ccc(NC(=O)CSc2nnc(-c3cccs3)n2CC)cc1`, the EC50 [3] is reported as > 120 µM (not active), the EC50 [4] is reported as > 120 µM (not active) and the EC50 [5] is reported as > 120 µM (not active).
In the case of `O=C(C/C=N\OCc1ccc([N+](=O)[O-])cc1)Nc1ccc(F)cc1F`, the IC50 (cells) is reported as 33 µM (active).
For `Cc1c(C(=O)Nc2ccc(S(=O)(=O)NCC3CCCO3)cc2)cccc1[N+](=O)[O-]` (configuration not stated), the IC50 [2] was 14.5 µM (active).
For `CCC(=O)c1ccc(OCc2ccc(C(=O)OC)cc2)cc1`, the IC50 (cells) was 38.8 µM (active).
